Laboratory results from patent US4638051A, “Brain imaging radiopharmaceuticals” (The Johns Hopkins University, priority 1985, dated 1987).

Assay: Biodistribution studies in ICR white mice: percent of injected dose of Tc-99m complex in brain tissue
Assay type: in vivo
Details: for % of Dose of Tc99m Complex in Brain, 5 min / % of Dose of Tc99m Complex in Brain, 10 min / % of Dose of Tc99m Complex in Brain, 15 min: ICR white mice, i.v. (tail), 0.5 to 2 microcuries, saline
Description: Biodistribution studies have been conducted with several complexes according to the present invention, in ICR white mice. A saline solution containing 0.5 to 2 microcuries of the Tc-99m complex was injected intravenously (tail), and the mice were sacrificed after 5, 10 or 15 minutes. The percent of the injected dose which was present in brain tissue was measured. […] On the other hand, the data reveal that the compounds containing the alkyl-amino group according to the present invention are retained in the brain for much longer times. For example, after 15 minutes, the concentration of compound 3 is 15 times that of compound 1.

Row | Compound | % of Dose of Tc99m Complex in Brain, 5 min | % of Dose of Tc99m Complex in Brain, 10 min | % of Dose of Tc99m Complex in Brain, 15 min | concentration in brain relative to that of compound 1 (after 15 minutes, mice, i.v., relative to compound 1)
1 | CC(C)(S)CNCCNCC(C)(C)S [Compound 1, reference compound] | 1.02 % of Dose | 0.30 % of Dose | 0.03 % of Dose | 
2 | CN(C)CCN(CCNCC(C)(C)S)CC(C)(C)S [Compound 2] | 0.89 % of Dose | 0.30 % of Dose | 0.42 % of Dose | 
3 | CC(C)NCCN(CCNCC(C)(C)S)CC(C)(C)S [Compound 3] | 0.64 % of Dose | 0.49 % of Dose | 0.49 % of Dose | 15 times
4 | CC(C)(S)CNC(C)(C)CN(CCN1CCCCC1)CC(C)(C)S [Compound 9] | 2.19 % of Dose |  | 1.01 % of Dose | 
